# Source: PubChem BioAssay AID330 (DTP/NCI, 2004)
# Where “and” joins values, the source holds several entries; their conditions need not be identical. Identical values can stand only once. Inconclusive results and toxic doses are left out. Square brackets hold non-standard residues; d marks the D form. Peptide text beside a SMILES is read from it. * marks the point of attachment. ξ: configuration not given here. Cbz = O=C(OCc1ccccc1)*; ξP = O=C(O)C1CCCN1
# Test system: P388 leukemia ip, CD2F1 mice, survival T/C
# Assay: NCI In Vivo Anticancer Drug Screen. Data for tumor model P388 Leukemia (intraperitoneal) in CD2F1 (CDF1) mice
# Details: endpoint: median survival time, higher = longer survival
# Method in brief: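 Mice carrying the transplanted tumor received test compound or vehicle. Survival was recorded in each group, and the value is the treated-group measurement divided by that of the vehicle-treated control group.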
# [1] = dose: 100.0 mg/kg/injection, schedule: Q04DX003 (ip), vehicle: Klucel (hydroxypropylcellulose) (HPC)
# [2] = dose: 200.0 mg/kg/injection, schedule: Q04DX003 (ip), vehicle: Klucel (hydroxypropylcellulose) (HPC)
# [3] = dose: 400.0 mg/kg/injection, schedule: Q04DX003 (ip), vehicle: Klucel (hydroxypropylcellulose) (HPC)
# [4] = dose: 50.0 mg/kg/injection, schedule: Q01DX005 (ip), vehicle: saline
# [5] = dose: 100.0 mg/kg/injection, schedule: Q01DX005 (ip), vehicle: saline
# [6] = dose: 200.0 mg/kg/injection, schedule: Q01DX005 (ip), vehicle: saline
# [7] = dose: 100.0 mg/kg/injection, schedule: Q01DX009 (ip), vehicle: saline with Tween-80
# [8] = dose: 200.0 mg/kg/injection, schedule: Q01DX009 (ip), vehicle: saline with Tween-80
# [9] = dose: 60.0 mg/kg/injection, schedule: Q01DX005 (ip), vehicle: saline with Tween-80
# [10] = dose: 50.0 mg/kg/injection, schedule: Q01DX005 (ip), vehicle: Klucel (hydroxypropylcellulose) (HPC)
# [11] = dose: 100.0 mg/kg/injection, schedule: Q01DX005 (ip), vehicle: Klucel (hydroxypropylcellulose) (HPC)
# [12] = dose: 200.0 mg/kg/injection, schedule: Q01DX005 (ip), vehicle: Klucel (hydroxypropylcellulose) (HPC)
# [13] = dose: 120.0 mg/kg/injection, schedule: Q01DX005 (ip), vehicle: saline with Tween-80
# [14] = dose: 240.0 mg/kg/injection, schedule: Q01DX005 (ip), vehicle: saline with Tween-80
# [15] = dose: 50.0 mg/kg/injection, schedule: Q01DX009 (ip), vehicle: saline
# [16] = dose: 12.5 mg/kg/injection, schedule: Q01DX009 (ip), vehicle: saline with Tween-80
# [17] = dose: 25.0 mg/kg/injection, schedule: Q01DX009 (ip), vehicle: saline with Tween-80
# [18] = dose: 50.0 mg/kg/injection, schedule: Q01DX009 (ip), vehicle: saline with Tween-80
# [19] = dose: 50.0 mg/kg/injection, schedule: Q01DX005 (ip), vehicle: saline with Tween-80
# [20] = dose: 100.0 mg/kg/injection, schedule: Q01DX005 (ip), vehicle: saline with Tween-80
# [21] = dose: 200.0 mg/kg/injection, schedule: Q01DX005 (ip), vehicle: saline with Tween-80
compound,measurement,setting,value
Cc1c2ccncc2c(C)c2c1[nH]c1cc(O)ccc12,T/C,"dose: 3.13 mg/kg/injection, schedule: Q04DX003 (ip), vehicle: distilled water + Tween-80",104 % of control
same,T/C,"dose: 6.25 mg/kg/injection, schedule: Q04DX003 (ip), vehicle: distilled water + Tween-80",108 % of control and 111 % of control
same,T/C,"dose: 12.5 mg/kg/injection, schedule: Q04DX003 (ip), vehicle: distilled water + Tween-80",122 % of control
O=[N+]([O-])c1ccc(-n2[nH]nnc2=S)cc1,T/C,"dose: 50.0 mg/kg/injection, schedule: Q04DX003 (ip), vehicle: saline with Tween-80",98 % of control and 104 % of control
same,T/C,"dose: 100.0 mg/kg/injection, schedule: Q04DX003 (ip), vehicle: saline with Tween-80",100 % of control and 104 % of control
same,T/C,"dose: 200.0 mg/kg/injection, schedule: Q04DX003 (ip), vehicle: saline with Tween-80",98 % of control and 91 % of control
O=C(SC(O)c1ccc([N+](=O)[O-])cc1)c1ccccc1 (centres undefined),T/C,[1],101 % of control
same,T/C,[2],106 % of control
same,T/C,[3],101 % of control
C/C=C(/C)C(=O)O[C@@H]1c2c(C)coc2C(=O)[C@@]2(OC(C)=O)CCC[C@@](C)(O)[C@@]12C,T/C,"dose: 3.25 mg/kg/injection, schedule: Q01DX005 (ip), vehicle: saline + alcohol",110 % of control
same,T/C,"dose: 6.5 mg/kg/injection, schedule: Q01DX005 (ip), vehicle: saline + alcohol",96 % of control
same,T/C,"dose: 13.0 mg/kg/injection, schedule: Q01DX005 (ip), vehicle: saline + alcohol",91 % of control
same,T/C,"dose: 26.0 mg/kg/injection, schedule: Q01DX005 (ip), vehicle: saline + alcohol",93 % of control
NCC(=O)N1CCCC1C(=O)NCC(=O)NCC(=O)O (centres undefined) (H-G[ξP]GG-OH),T/C,[4],101 % of control
same,T/C,[5],107 % of control
same,T/C,"dose: 100.0 mg/kg/injection, schedule: Q01DX005 (ip), vehicle: water",105 % of control
same,T/C,[6],99 % of control
same,T/C,"dose: 200.0 mg/kg/injection, schedule: Q01DX005 (ip), vehicle: water",107 % of control
same,T/C,"dose: 400.0 mg/kg/injection, schedule: Q01DX005 (ip), vehicle: water",110 % of control
C/C(=C\c1c[nH]c2ccccc12)[N+](=O)[O-],T/C,[7],109 % of control
same,T/C,[8],104 % of control
same,T/C,"dose: 400.0 mg/kg/injection, schedule: Q01DX009 (ip), vehicle: saline with Tween-80",124 % of control
c1csc(-c2ccn[nH]2)c1,T/C,"dose: 15.0 mg/kg/injection, schedule: Q01DX005 (ip), vehicle: saline with Tween-80",100 % of control
same,T/C,"dose: 30.0 mg/kg/injection, schedule: Q01DX005 (ip), vehicle: saline with Tween-80",100 % of control
same,T/C,[9],116 % of control and 91 % of control
COc1cc(CCN=Cc2cccnc2)c([N+](=O)[O-])cc1OC,T/C,[10],101 % of control
same,T/C,[11],100 % of control
same,T/C,[12],100 % of control
COC1=CC(=O)C(O)=C(CC2(C)C(C)CCC3(C)C2CCCC3(C)C)C1=O (centres undefined),T/C,"dose: 50.0 mg/kg/injection, schedule: Q01DX009 (ip), vehicle: Klucel (hydroxypropylcellulose) (HPC)",112 % of control
same,T/C,"dose: 100.0 mg/kg/injection, schedule: Q01DX009 (ip), vehicle: Klucel (hydroxypropylcellulose) (HPC)",112 % of control
CC(c1ccccc1)n1ccnc1CO (centres undefined),T/C,[9],103 % of control
same,T/C,[13],107 % of control
same,T/C,[14],110 % of control
CCCCCC(CN(C)C)C(=O)/C=C/c1ccc(O)cc1 (centres undefined),T/C,"dose: 12.5 mg/kg/injection, schedule: Q01DX009 (ip), vehicle: saline",88 % of control
same,T/C,"dose: 25.0 mg/kg/injection, schedule: Q01DX009 (ip), vehicle: saline",89 % of control
same,T/C,[15],101 % of control and 93 % of control
same,T/C,"dose: 100.0 mg/kg/injection, schedule: Q01DX009 (ip), vehicle: saline",113 % of control
CC(C)C(NC(=O)C(Cc1ccc(O)cc1)NC(=O)OCc1ccccc1)C(=O)O (stereo not drawn) (Cbz-Tyr-Val-OH; configuration not given here),T/C,[10],103 % of control
same,T/C,[11],100 % of control
same,T/C,[12],100 % of control
O=C(O)CC1SC(c2ccccc2Cl)N(/N=C/c2ccccc2Cl)C1=O (centres undefined),T/C,[16],102 % of control
same,T/C,[17],98 % of control
same,T/C,[18],99 % of control and 87 % of control
CCOc1cccc(/C=N/N=C2\C(=O)Nc3c(Cl)cc(Cl)cc32)c1O,T/C,[19],89 % of control
same,T/C,[20],92 % of control
same,T/C,[21],91 % of control
Nc1ncnc(N)c1NC(=O)c1cc(Cl)c(OCc2ccccc2)c(Cl)c1,T/C,[9],101 % of control
same,T/C,[13],95 % of control
same,T/C,[14],94 % of control
CCOc1ccc(C(C#N)N(C)C)cc1OCC (centres undefined),T/C,[16],105 % of control
same,T/C,[17],100 % of control
same,T/C,[18],86 % of control and 92 % of control
CCOC(=O)CSc1cc(O)c2ccccc2c1N=Nc1ccc(C(=O)OCC)cc1,T/C,[19],104 % of control
same,T/C,[20],110 % of control
same,T/C,[21],114 % of control
[CH3][Sn]([CH3])([O]C(=O)c1ccc2c(c1)OCO2)[O]C(=O)c1ccc2c(c1)OCO2,T/C,[10],112 % of control
same,T/C,[11],112 % of control
same,T/C,[12],109 % of control
CCCCOCN(CCc1ccccc1)COCCCC,T/C,[18],118 % of control
same,T/C,[8],152 % of control
C(NC=C1c2ccccc2-c2ccccc21)=C1c2ccccc2-c2ccccc21,T/C,[10],100 % of control
same,T/C,[11],92 % of control
same,T/C,[12],94 % of control
CC(C)(OC(=O)NC(Cc1cnc[nH]1)C(=O)O)c1ccc(N=Nc2ccccc2)cc1 (centres undefined),T/C,[18],97 % of control
same,T/C,[7],94 % of control
same,T/C,[8],97 % of control
O=[N+]([O-])c1ccccc1C=Nc1ccc2nc(SCc3ccccc3)sc2c1,T/C,[1],100 % of control
same,T/C,[2],95 % of control
same,T/C,[3],89 % of control
CCCCCCC(=O)/C=C/c1cccc(OCc2cccc(Cl)c2)c1,T/C,"dose: 50.0 mg/kg/injection, schedule: Q01DX005 (ip), vehicle: saline + Tween-80 + alcohol",96 % of control
same,T/C,"dose: 100.0 mg/kg/injection, schedule: Q01DX005 (ip), vehicle: saline + Tween-80 + alcohol",91 % of control
same,T/C,"dose: 200.0 mg/kg/injection, schedule: Q01DX005 (ip), vehicle: saline + Tween-80 + alcohol",96 % of control
O=C(Nc1ccc(Cl)c(Cl)c1)Oc1cccnc1,T/C,[18],100 % of control
same,T/C,[7],105 % of control
O=c1[nH]c(=O)c2nc(-c3cccnc3)cnc2[nH]1,T/C,[15],103 % of control and 120 % of control
CCOC(=O)c1cnc(Sc2ncccc2[N+](=O)[O-])nc1N,T/C,"dose: 100.0 mg/kg/injection, schedule: Q04DX003 (ip), vehicle: saline",95 % of control
same,T/C,"dose: 200.0 mg/kg/injection, schedule: Q04DX003 (ip), vehicle: saline",98 % of control
same,T/C,"dose: 400.0 mg/kg/injection, schedule: Q04DX003 (ip), vehicle: saline",92 % of control
COc1cccc2c1C(=O)c1c(O)c3c(c(O)c1C2=O)CC(O)(c1csc(N2CCN(C)CC2)n1)CC3O (centres undefined),T/C,"dose: 1.56 mg/kg/injection, schedule: Q01DX009 (ip), vehicle: water",87 % of control
same,T/C,"dose: 3.13 mg/kg/injection, schedule: Q01DX009 (ip), vehicle: water",93 % of control
same,T/C,"dose: 6.25 mg/kg/injection, schedule: Q01DX009 (ip), vehicle: water",110 % of control
same,T/C,"dose: 12.5 mg/kg/injection, schedule: Q01DX009 (ip), vehicle: water",110 % of control
same,T/C,"dose: 25.0 mg/kg/injection, schedule: Q01DX009 (ip), vehicle: water",105 % of control and 116 % of control
same,T/C,"dose: 50.0 mg/kg/injection, schedule: Q01DX009 (ip), vehicle: water",102 % of control
same,T/C,"dose: 100.0 mg/kg/injection, schedule: Q01DX009 (ip), vehicle: water",107 % of control
Cc1cccc2c(=O)c(CCl)c(-c3ccccc3)sc12,T/C,[19],103 % of control
same,T/C,[20],116 % of control
same,T/C,[21],119 % of control
COc1ccc([N+](=O)[O-])c2ccc(C(=O)O)nc12,T/C,[4],103 % of control
same,T/C,[5],97 % of control
same,T/C,[6],110 % of control
CC(=O)OC1CCC2C3CCC4=CC(=O)C(C(O)(C(F)(F)F)C(F)(F)F)CC4(C)C3CCC12C (centres undefined),T/C,"dose: 100.0 mg/kg/injection, schedule: Q01DX001 (sc), vehicle: steriod suspending solution",100 % of control
same,T/C,"dose: 200.0 mg/kg/injection, schedule: Q01DX001 (sc), vehicle: steriod suspending solution",100 % of control
same,T/C,"dose: 400.0 mg/kg/injection, schedule: Q01DX001 (sc), vehicle: steriod suspending solution",104 % of control
